Values of other authors in patent US5614503A, “Amphipathic nucleic acid transporter” (Aronex Pharmaceuticals, Inc., priority 1995, dated 1997).

Key:
[1] = system: animal cells; conditions: some types of animal cells; Felgner, 1990
[2] = Moore et al., 1993

Structure (SMILES) | effect on uptake kinetics of nucleic acids [1] | antibiotic activity [2]
CCCCCCCC/C=C\CCCCCCCCOCC(C[N+](C)(C)C)OCCCCCCCC/C=C\CCCCCCCC (centres unmarked) [DOTMA] | can improve the uptake kinetics of nucleic acids | 
CC(C)[C@@H](CC[C@@H](C)[C@H]1CC[C@H]2[C@@H]3[C@H](O)C[C@H]4C[C@@H](NCCCNCCCCN)CC[C@]4(C)[C@H]3CC[C@]12C)OS(=O)(=O)O [squalamine] |  | broad-spectrum antibiotic
